The values below come from ChEMBL document CHEMBL5532637, “Antimicrobial activity of natural and semi-synthetic carbazole alkaloids” (Eur J Med Chem, 2023).

≈ marks a conversion by molar mass, not a printed value.

Test [1] has as its system Aspergillus fumigatus. Description: Antifungal activity against Aspergillus fumigatus assessed as inhibition of fungal growth by serial dilution method. It is filed as functional.
In test [2] the test system is Nannizzia gypsea. Description: Antifungal activity against Microsporum gypseum assessed as inhibition of fungal growth by serial dilution method. It is filed as functional.
For test [3], the system named is Cryptococcus neoformans. Description: Antifungal activity against Cryptococcus neoformans assessed as inhibition of fungal growth by serial dilution method. It is filed as functional.
Test [4] relates to Staphylococcus aureus. Description: Antibacterial activity against Staphylococcus aureus assessed as inhibition of bacterial growth incubated for 24 hrs. Format: functional.
The test system of test [5] is Caulobacter vibrioides. Description: Antibacterial activity against Caulobacter crescentus assessed as inhibition of bacterial growth incubated for 24 hrs. Format: functional.
The subject of test [6] is Escherichia coli. Description: Antibacterial activity against Escherichia coli expressing recombinant blaNDM-1 gene assessed as inhibition of bacterial growth incubated for 20 hrs by broth microdilution method. Format: functional. On the technique in general: Dilution methods test growth across graded concentrations, often in twofold steps.
Test [7] relates to Klebsiella pneumoniae. Description: Antibacterial activity against Klebsiella pneumoniae assessed as inhibition of bacterial growth incubated for 20 hrs by broth microdilution method. It is filed as functional.
For test [8], the system named is Staphylococcus aureus. Description: Antibacterial activity against wild type Staphylococcus aureus assessed as inhibition of bacterial growth incubated for 20 hrs by broth microdilution method. It is filed as functional.
The test system of test [9] is Escherichia coli. Description: Antibacterial activity against Escherichia coli expressing blaNDM-1 gene assessed as inhibition of bacterial growth incubated for 20 hrs by broth microdilution method. It is filed as functional.
The subject of test [10] is Bacillus subtilis. Description: Antibacterial activity against Bacillus subtilis assessed as inhibition of bacterial growth incubated for 20 hrs by broth microdilution method. It is filed as functional.
For test [11], the system named is Escherichia coli. Description: Antibacterial activity against wild type Escherichia coli assessed as inhibition of bacterial growth incubated for 20 hrs by broth microdilution method. Format: functional.
The test system of test [12] is Staphylococcus aureus. Description: Antibacterial activity against methicillin-resistant Staphylococcus aureus assessed as inhibition of bacterial growth incubated for 20 hrs by broth microdilution method. Format: functional.
In test [13] the test system is Staphylococcus aureus. Description: Antibacterial activity against Staphylococcus aureus ATCC 29213 assessed as inhibition of bacterial growth by microdilution assay. It is filed as functional.
Test [14] deals with Moraxella catarrhalis. Description: Antibacterial activity against Moraxella catarrhalis ATCC 43617 assessed as inhibition of bacterial growth by microdilution assay. It is filed as functional.
Test [15] deals with Bacillus subtilis. Description: Antibacterial activity against Bacillus subtilis 168 assessed as inhibition of bacterial growth by microdilution assay. It is filed as functional.
Test [16] deals with Staphylococcus simulans. Description: Antibacterial activity against Staphylococcus simulans 22 assessed as inhibition of bacterial growth by microdilution assay. It is filed as functional.
For test [17], the system named is Enterococcus faecium. Description: Antibacterial activity against Enterococcus faecium BM 4147 assessed as inhibition of bacterial growth by microdilution assay. Format: functional.
In test [18] the test system is Staphylococcus aureus. Description: Antimicrobial activity against methicillin-resistant Staphylococcus aureus assessed as inhibition of microbial growth incubated for 18 to 20 hrs by broth microdilution method. Conditions: time 18-20 hrs. It is filed as functional.
The test system of test [19] is Bacillus mycoides. Description: Antimicrobial activity against Bacillus mycoides assessed as inhibition of microbial growth incubated for 18 to 20 hrs by broth microdilution method. Format: functional. Conditions: time 18-20 hrs.
The test system of test [20] is Mycolicibacterium smegmatis. Description: Antimicrobial activity against Mycobacterium smegmatis assessed as inhibition of microbial growth incubated for 18 to 20 hrs by broth microdilution method. It is filed as functional. Particulars: time 18-20 hrs.
Test [21] deals with Candida albicans. Description: Antimicrobial activity against Candida albicans assessed as inhibition of microbial growth incubated for 18 to 20 hrs by broth microdilution method. It is filed as functional. Conditions: time 18-20 hrs.
Test [22] concerns Pseudomonas aeruginosa. Description: Antibacterial activity against Pseudomonas aeruginosa assessed as zone of inhibition incubated for 24 hrs by disk diffusion method. It is filed as functional. (In general: In agar diffusion tests the substance spreads into inoculated agar from a disc or well.)
Test [23] concerns Staphylococcus aureus. Description: Antibacterial activity against Staphylococcus aureus assessed as zone of inhibition incubated for 24 hrs by disk diffusion method. It is filed as functional.
The test system of test [24] is Xanthomonas oryzae. Description: Antimicrobial activity against Xanthomonas oryzae by turbidimetric analysis. Format: functional, organism-based.
A short description of test [25]: Antimicrobial activity against Pseudomonas syringae pv. actinidiae by turbidimetric analysis. It is filed as functional.
Test [26] relates to Xanthomonas axonopodis. Description: Antimicrobial activity against Xanthomonas axonopodis by turbidimetric analysis. It is filed as functional, organism-based.
The test system of test [27] is Staphylococcus aureus. Description: Antibacterial activity against methicillin-resistant Staphylococcus aureus assessed as inhibition of bacterial growth incubated for 24 hrs by two-fold serial dilution assay. Format: functional.
Test [28] concerns Staphylococcus aureus. Description: Antibacterial activity against methicillin-sensitive Staphylococcus aureus assessed as inhibition of bacterial growth incubated for 24 hrs by two-fold serial dilution assay. Format: functional.
Test [29] deals with Candida albicans. Description: Antifungal activity against Candida albicans SC5314 assessed as inhibition of fungal growth incubated for 24 hrs by microtiter plate reader assay. Format: functional.
For test [30], the system named is Staphylococcus aureus. Description: Antibacterial activity against Staphylococcus aureus assessed as inhibition of bacterial growth. It is filed as functional, organism-based.
Test [31] deals with Bacillus subtilis. Description: Antibacterial activity against Bacillus subtilis assessed as inhibition of bacterial growth. It is filed as functional.
Test [32] concerns Staphylococcus aureus. Description: Antimicrobial activity against methicillin-resistant Staphylococcus aureus assessed as inhibition of microbial growth incubated for 18 hrs by agar diffusion method. Format: functional.
Test [33] deals with Staphylococcus aureus. Description: Antimicrobial activity against Staphylococcus aureus assessed as inhibition of microbial growth incubated for 18 hrs by agar diffusion method. It is filed as functional.

As to `Cc1ccc2c(c1)c1c(n2CCCNCc2ccccc2)CCCC1`, the MIC80 in test [1] came to 32 µg/mL (≈ 96.2 µM); in [2] it was 0.016 µg/mL (≈ 0.0481 µM); in test [3], 1 µg/mL (≈ 3.01 µM).

On to `OCC(CO)(CO)NCC(O)Cn1c2ccc(Cl)cc2c2cc(Cl)ccc21` (stereo unspecified), for which the minimum inhibitory concentration (MIC) in test [4] was 50 µM (≈ 20.7 µg/mL); in test [5], 15 µM (≈ 6.2 µg/mL).

Turning to `Fc1cc(F)c2c(c1)[nH]c1ccc(F)cc12`, the minimal inhibitory concentration (MIC) stood at 1.5 µg/mL in test [6]; 1.5 µg/mL (≈ 6.78 µM) in test [7]; 1.5 µg/mL (≈ 6.78 µM) in [8]; 1.5 µg/mL (≈ 6.78 µM) in test [9]; 1.5 µg/mL (≈ 6.78 µM) in test [10]; 1.5 µg/mL (≈ 6.78 µM) in test [11]. Further, the MIC in [12] came out at 1.5 µg/mL (≈ 6.78 µM).

Turning to `c1ccc(CCNC2CCCc3c2[nH]c2ccc(C4CCCCC4)cc32)cc1` (stereo unspecified), the MIC came to 2 µg/mL (≈ 5.37 µM) in test [13]; 1 µg/mL (≈ 2.68 µM) in test [14]; 2 µg/mL (≈ 5.37 µM) in [15]; 2 µg/mL (≈ 5.37 µM) in test [16]; 2 µg/mL (≈ 5.37 µM) in test [17].

In the case of `COc1ccc2[nH]c3c(O)cccc3c2c1Cl`, the minimal inhibitory concentration (MIC) in test [18], in [19], in test [20] and in test [21] was 32 µg/mL in each case.

In the case of `CCOc1nc2c(c(-c3cccs3)c1C(N)=O)CCc1c-2[nH]c2ccc(Cl)cc12`, the “inhibition zone (IZ)” value in test [22] came out at 2.1 cm; in [23], 1.1 cm.

In the case of `OC(CNCc1cn(-c2ccc(F)cc2)nn1)Cn1c2ccccc2c2ccccc21` (stereo unspecified), the EC50 worked out at 3.36 µg/mL (≈ 8.09 µM) in test [24], 14.2 µg/mL (≈ 34.2 µM) in [25] and 2.87 µg/mL (≈ 6.91 µM) in test [26].

Take `N#Cc1ccc2c(c1)[nH]c1c(-c3c[nH]c4ccc(C#N)cc34)ccc(-c3c[nH]c4ccc(C#N)cc34)c12`: the MIC in test [27] was 8 µg/mL (≈ 16.9 µM); in [28], 16 µg/mL (≈ 33.9 µM).

Regarding `O=C1COc2ccccc2N1CC(O)CN1CCN(CC(O)Cn2c3ccccc3c3ccccc32)CC1` (stereo unspecified), the EC50 came out at 4.95 µg/mL (≈ 9.62 µM) in [24], 8.5 µg/mL (≈ 16.5 µM) in test [25] and 4.71 µg/mL (≈ 9.15 µM) in [26].

As for `Clc1ccc2[nH]c3c(c2c1)CCCC3NCc1ccc(-c2ccccc2)cc1` (stereo unspecified), the MIC50 in [29] stood at 6.8 µM (≈ 2.63 µg/mL).

Consider `COC12C(=O)N(C)C(=O)C1(OC)c1c([nH]c3cc(Cl)ccc13)-c1[nH]c3cc(Cl)ccc3c12` (stereo unspecified), for which the minimal inhibitory concentration (MIC) in test [30] and in test [31] was 3.1 µg/mL (≈ 6.59 µM) throughout.

`CC(C)=CC1OC(=O)c2cc(O)c3[nH]c4ccccc4c3c21` (stereo unspecified): the MIC in [32] and in [33] was 64 µg/mL in each case.

By MIC80 is commonly meant the lowest concentration that inhibits either 80% of growth or 80% of the strains tested, depending on the study. For orientation: MIC means the smallest concentration in the dilution series that meets the test's criterion for growth inhibition. The term EC50 denotes the midpoint of the concentration-response curve. Lower therefore signals a more potent agent. What is called MIC50 is the lowest concentration that inhibits either 50% of growth or 50% of the strains tested, depending on the study.
